From US11993576B2, “N-benzyl-N-arylsulfonamide derivative and preparation and use thereof” (Hangzhou Yirui Pharmaceutical Technology Co., Ltd, priority 2019, dated 2024)

target: human Kv1.3 (Homo sapiens, UniProt P22001); assay: IonWorks automated patch clamp assay of inhibitory activity against Kv1.3; format: cell-based; conditions: automated patch clamp method; CHO-K1 cells stably expressing human Kv1.3
Description: I. IonWorks Automated Patch Clamp Assay of Inhibitory Activity Against Kv1.3
The principle and method for Kv1.3 IonWorks assay can be found in Schroeder et al. [Schroeder et al. J Biomol Screen 2003, 8(1):50-64]
Inhibitory activity of the compounds against Kv1.3 was assessed using a CHO-K1 recombinant cell line stably expressing human Kv1.3 (Charles River, Calif.). The cells were cultured in an F-12K culture medium containing 5% calf serum (Invitrogen, Carlsbad. Calif.) in an incubator at 37° C. and under air humidity with 6% CO2. Prior to be fed in the IonWorks system, the adherent cells were treated with Versene at 37° C. for 6-7 min. After gently beating the culture flask, the cells were re-suspended in a PBS phosphate buffer, and then were centrifuged at 50×g for 4 min. After a short grinding, the cells were eventually re-suspended in an external recording solution at a density of approximately 1×10^6/mL.
The compounds were dissolved in DMSO to formulate a final assay concentration of 300× on the master plate. The final gradient assay concentrations were […], 0.096, 0.048, 0.24, 1.2, 6 and 30 μM. All 300× stock solutions of each compound in DMSO were transferred to a 384-well plate with 2 μl per well. The plates were sealed and stored at −80° C. until the day of assay.
On the day of assay, the plates were each thawed at room temperature. After centrifugation, 198 μl of the external recording solution (with the components of: 130 mM Na-Gluconate, 20 mM NaCl, 4 mM KCl, 1 mM MgCl2, 1.8 mM CaCl2, 5 mM Glucose and 10 mM HEPES, pH7.3) was added and mixed thoroughly. This step provided a 1:100 dilution for the compounds. After addition of cells to IonWorks, a further 1:3 dilution was carried out, resulting in a total dilution of 1:300. At least 8 wells were reserved as blank control on each of the plates, i.e., containing only 0.3% DMSO. In addition, at least 8 wells were reserved as positive control to detect the specificity to cell signals. Fluoxetine, a compound as the positive control, was assayed at its maximum blocking concentration (100 μm) and secondary maximum blocking concentration (10 μm). In addition, an internal recording solution used in the assay (with the components of: 100 mM K-gluconate, 40 mM KCl, 1 mM MgCl2, 1 mM EGTA and 10 mM HEPES, pH7.3) contained Amphotericin B at a final concentration of 200 μg/mL to gain current channels inside the cells. The osmotic pressure of the solution was adjusted with sucrose.
Experimental procedures were carried out following the protocols as set by IonWorks Quattro system (Molecular Devices, San Jose, CA). The current of human Kv1.3 was elicited to 0 millivolt (mV) for four times by a pulse lasting 1 second. A potential of −80 mV was maintained between pulses, for 5 seconds. First, a early voltage application program was started in the IonWorks Quattro system, and then the compounds were added and incubated for 600 seconds. Next, a late voltage application program was started until completion of all assays.
The maximum peak outward currents both before and after addition of the compounds as well as the average tail current elicited when the fourth pulse rose to 0 mV were measured. The inhibitory activity of the compounds against Kv1.3 can be calculated by dividing the measured current amplitude after addition of the compounds by the measured current amplitude before addition of the compounds.
All data was calibrated by a data filtration program of the IonWorks Quattro system. The filtration standard was that: seal quality >30 MΩ, decrease of seal resistance <50% and current amplitude >200 pA.

human Kv1.3, sequence (P22001 whole entry): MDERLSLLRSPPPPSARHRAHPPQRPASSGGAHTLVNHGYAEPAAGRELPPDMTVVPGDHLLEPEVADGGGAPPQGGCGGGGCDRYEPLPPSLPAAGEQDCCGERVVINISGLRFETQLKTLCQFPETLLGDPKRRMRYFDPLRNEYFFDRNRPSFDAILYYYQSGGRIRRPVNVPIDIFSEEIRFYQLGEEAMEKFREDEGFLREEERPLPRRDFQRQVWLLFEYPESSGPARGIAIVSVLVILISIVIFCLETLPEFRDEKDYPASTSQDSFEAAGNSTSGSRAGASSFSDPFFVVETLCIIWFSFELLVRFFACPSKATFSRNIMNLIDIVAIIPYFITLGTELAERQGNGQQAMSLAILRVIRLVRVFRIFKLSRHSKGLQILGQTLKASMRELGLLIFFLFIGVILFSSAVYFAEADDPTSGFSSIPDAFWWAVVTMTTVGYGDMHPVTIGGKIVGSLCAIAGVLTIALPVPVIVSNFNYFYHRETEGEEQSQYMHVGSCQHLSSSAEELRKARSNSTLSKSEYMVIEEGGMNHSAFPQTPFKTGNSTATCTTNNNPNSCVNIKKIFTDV

Question: For `CCOC(=O)N1CCN(c2ccc(N(Cc3ccccc3)S(=O)(=O)c3ccccc3)cc2C#N)CC1` [Compound 1, ethyl 4-(4-(N-benzylbenzenesulfonamido)-2-cyanophenyl)piperazin-1-formate], which IC50 is on record?
Answer: 265 nM

Question: For `CCOC(=O)N1CCN(c2ccc(N(Cc3ccc(F)cc3)S(=O)(=O)c3ccc(F)cc3)cc2C#N)CC1` [Compound 2, ethyl 4-(2-cyano-4-((4-fluoro-N-(4-fluorobenzyl)phenyl)sulfonamido)phenyl)piperazin-1-formate], which IC50 is on record?
Answer: 131 nM

Question: With `CCOC(=O)N1CCN(c2ccc(N(Cc3ccc(F)c(OC)c3)S(=O)(=O)c3ccc(F)cc3)cc2C#N)CC1` [Compound 3, ethyl 4-(2-cyano-4-((4-fluoro-N-(4-fluoro-3-methoxybenzyl)phenyl)sulfonamido)phenyl)piperazin-1-formate] as the compound, how does the IC50 read?
Answer: 107 nM

Question: For `CCOC(=O)N1CCN(c2ccc(N(C(=O)c3ccccc3)S(=O)(=O)c3ccccc3)cc2C#N)CC1` [Compound 4, ethyl 4-(2-cyano-4-(N-(benzenesulfonamido)benzamido)phenyl)piperazin-1-formate], which IC50 is on record?
Answer: 12900 nM

Question: `N#Cc1cc(N(Cc2ccccc2)S(=O)(=O)c2ccccc2)ccc1N1CCC(=O)CC1` [Compound 5, N-benzyl-N-(3-cyano-4-(4-oxopiperidin-1-yl)phenyl) benzenesulfonamide] was tested. Which IC50 did it give?
Answer: 186 nM

Question: With `N#Cc1cc(N(Cc2ccccc2)S(=O)(=O)c2ccccc2)ccc1N1CCC(O)CC1` [Compound 6, N-benzyl-N-(3-cyano-4-(4-hydroxypiperidin-1-yl)phenyl)benzenesulfonamide] as the compound, how does the IC50 read?
Answer: 193 nM

Question: How did the IC50 turn out when `CC(=O)OC1CCN(c2ccc(N(Cc3ccccc3)S(=O)(=O)c3ccccc3)cc2C#N)CC1` [Compound 7, N-benzyl-N-(3-cyano-4-(4-acetyloxypiperidin-1-yl)phenyl)benzenesulfonamide] was run?
Answer: 312 nM

Question: `CCCN(c1ccc(N2CCN(C(=O)OCC)CC2)c(C#N)c1)S(=O)(=O)c1ccc(F)cc1` [Compound 8, Ethyl 4-(2-cyano-4-((4-fluoro-N-propylphenyl)sulfonamido)phenyl)piperazin-1-formate] was tested. Which IC50 did it give?
Answer: 9300 nM

Question: Which IC50 does the source give for `CCCS(=O)(=O)N(Cc1ccc(F)cc1)c1ccc(N2CCN(C(=O)OCC)CC2)c(C#N)c1` [Compound 9, ethyl 4-(2-cyano-4-(N-(4-fluorobenzyl)propanesulfonamido)phenyl)piperazin-1-formate] here?
Answer: 134 nM

Question: `N#Cc1cc(N(Cc2ccc(F)cc2)S(=O)(=O)c2ccccc2)ccc1N1CCOCC1` [Compound 10, N-(3-cyano-4-morpholinylphenyl)-N-(4-fluorobenzyl) benzenesulfonamide] was tested. Which IC50 did it give?
Answer: 98 nM

Question: `CN(C)C(=O)N1CCN(c2ccc(N(Cc3ccccc3)S(=O)(=O)c3ccccc3)cc2C#N)CC1` [Compound 11, 4-(4-(N-benzylbenzenesulfonamido)-2-cyanophenyl)-N,N-dimethylpiperazin-1-formamide] was tested. Which IC50 did it give?
Answer: 195 nM

Question: `CN(C)S(=O)(=O)C1CCN(c2ccc(N(Cc3ccccc3)S(=O)(=O)c3ccccc3)cc2C#N)CC1` [Compound 12, 1-(4-(N-benzylbenzenesulfonamido)-2-cyanophenyl)-N,N-dimethylpiperidin-4-sulfonamide] was tested. Which IC50 did it give?
Answer: 234 nM

Question: With `CCOC(=O)N1CCN(c2ccc(N(CC(C)C)S(=O)(=O)c3ccccc3)cc2C#N)CC1` [Compound 13, ethyl 4-(2-cyano-4-(N-isobutylphenylsulfonamido)phenyl)piperazin-1-formate] as the compound, how does the IC50 read?
Answer: 6400 nM

Question: Which IC50 does the source give for `CCOC(=O)NC1CCN(c2ccc(N(Cc3ccccc3)S(=O)(=O)c3ccccc3)cc2C#N)CC1` [Compound 14, ethyl 1-(4-(N-benzylbenzenesulfonamido)-2-cyanophenyl)piperidin-4-yl carbamate] here?
Answer: 129 nM

Question: `CC(=O)NC1CCN(c2ccc(N(Cc3ccccc3)S(=O)(=O)c3ccccc3)cc2C#N)C1` (stereo not drawn) [Compound 15, N-(1-(4-(N-benzylbenzenesulfonamido)-2-cyanophenyl)pyrrolidin-3-yl)acetamide] was tested. Which IC50 did it give?
Answer: 310 nM

Question: Which IC50 does the source give for `N#Cc1cc(N(Cc2ccccc2)S(=O)(=O)c2ccccc2)ccc1N1C(=O)CCCC1=O` [Compound 16, N-benzyl-N-(3-cyano-4-(2,6-dioxopiperidin-1-yl)phenyl)benzenesulfonamide] here?
Answer: 1260 nM

Question: Which IC50 does the source give for `CN1CCCN(c2ccc(N(Cc3ccccc3)S(=O)(=O)c3ccccc3)cc2C#N)C1=O` [Compound 17, N-benzyl-N-(3-cyano-4-(3-methyl-2-oxotetrahydropyrimidin-1(2H)-yl)phenyl)benzenesulfonamide] here?
Answer: 190 nM

Question: Which IC50 does the source give for `CN(C)CCOC1CCN(c2ccc(N(Cc3ccccc3)S(=O)(=O)c3ccccc3)cc2C#N)CC1` [Compound 18, N-benzyl-N-(3-cyano-4-(4-(2-(dimethylamino)ethoxy)piperidin-1-yl)phenyl)benzenesulfonamide] here?
Answer: 101 nM

Question: `CCCS(=O)(=O)N(Cc1ccc(F)cc1)c1ccc(N2CCC(O)CC2)c(C#N)c1` [Compound 19, N-(3-cyano-4-(4-hydroxypiperidin-1-yl)phenyl)-N-(4-fluorobenzyl)propane-1-sulfonamide] was tested. Which IC50 did it give?
Answer: 130 nM

Question: With `N#Cc1cc(N(Cc2ccc(F)cc2)S(=O)(=O)c2ccccc2)ccc1N1CCC(O)CC1` [Compound 20, N-(3-cyano-4-(4-hydroxypiperidin-1-yl)phenyl)-N-(4-fluorobenzyl)benzenesulfonamide] as the compound, how does the IC50 read?
Answer: 90 nM

Question: Which IC50 does the source give for `CCCS(=O)(=O)N(Cc1ccccc1)c1ccc(N2CCN(C(=O)OCC)CC2)c(C#N)c1` [Compound 22, Ethyl 4-(4-(N-benzylpropanesulfonamido) 2-cyanophenyl)piperazin-1-formate] here?
Answer: 333 nM

Question: Which IC50 does the source give for `CCCS(=O)(=O)N(Cc1cccc(F)c1)c1ccc(N2CCN(C(=O)OCC)CC2)c(C#N)c1` [Compound 23, Ethyl 4-(2-cyano-4-(N-(3-fluorobenzyl)propanesulfonamido)phenyl) piperazin-1-formate] here?
Answer: 176 nM

Question: With `CCCS(=O)(=O)N(Cc1ccccc1F)c1ccc(N2CCN(C(=O)OCC)CC2)c(C#N)c1` [Compound 25, Ethyl 4-(2-cyano-4-(N-(2-fluorobenzyl)propanesulfonamido)phenyl) piperazin-1-formate] as the compound, how does the IC50 read?
Answer: 321 nM

Question: `CCCS(=O)(=O)N(Cc1cccc(OC)c1)c1ccc(N2CCN(C(=O)OCC)CC2)c(C#N)c1` [Compound 26, Ethyl 4-(2-cyano-4-(N-(3-methoxybenzyl)propanesulfonamido)phenyl) piperazin-1-formate] was tested. Which IC50 did it give?
Answer: 420 nM

Question: For `CCCS(=O)(=O)N(Cc1ccc(OC)cc1)c1ccc(N2CCN(C(=O)OCC)CC2)c(C#N)c1` [Compound 27, Ethyl 4-(2-cyano-4-(N-(4-methoxybenzyl)propanesulfonamido)phenyl)piperazin-1-formate], which IC50 is on record?
Answer: 239 nM

Question: `CCCS(=O)(=O)N(Cc1ccc(OC)cc1F)c1ccc(N2CCN(C(=O)OCC)CC2)c(C#N)c1` [Compound 29, Ethyl 4-(2-cyano-4-(N-(2-fluoro-4-methoxybenzyl)propanesulfonamido)phenyl)piperazin-1-formate] was tested. Which IC50 did it give?
Answer: 439 nM

Question: How did the IC50 turn out when `CCCS(=O)(=O)N(Cc1ccc(F)cc1OC)c1ccc(N2CCN(C(=O)OCC)CC2)c(C#N)c1` [Compound 30, Ethyl 4-(2-cyano-4-(N-(4-fluoro-2-methoxybenzyl)propanesulfonamido)phenyl)piperazin-1-formate] was run?
Answer: 288 nM

Question: With `CCCS(=O)(=O)N(Cc1ccncn1)c1ccc(N2CCN(C(=O)OCC)CC2)c(C#N)c1` [Compound 31, Ethyl 4-(2-cyano-4-(N-(pyrimidin-4-ylmethyl)propanesulfonamido)phenyl) piperazin-1-formate] as the compound, how does the IC50 read?
Answer: 412 nM

Question: How did the IC50 turn out when `CCCS(=O)(=O)N(Cc1ccccn1)c1ccc(N2CCN(C(=O)OCC)CC2)c(C#N)c1` [Compound 32, Ethyl 4-(2-cyano-4-(N-(pyridin-2-ylmethyl)propanesulfonamido)phenyl) piperazin-1-formate] was run?
Answer: 165 nM

Question: How did the IC50 turn out when `CCCS(=O)(=O)N(Cc1ccco1)c1ccc(N2CCN(C(=O)OCC)CC2)c(C#N)c1` [Compound 33, Ethyl 4-(2-cyano-4-(N-(furan-2-ylmethyl)propanesulfonamido)phenyl) piperazin-1-formate] was run?
Answer: 839 nM
